The nature of data set [1]: UV-vis absorption spectrum in acetone. Format: physicochemical. The method, then:
Referring now to FIG. 1B, there is shown a synthetic pathway to Reactive Diluent 1, 2, and 3. […] Reactive diluents of the invention are non-white coloured.
The spectra 2a and 2b of Reactive Diluent 3 were recorded in spectroscopy grade acetone, diluted from 1M stock solutions down to 10 μM using serial dilutions. Absorption behaviour was examined from 200 nm to 800 nm, at 1 nm increments, using a ThermoFisher 350 UV-vis spectrophotometer (ThermoFisher Scientific, UK). Absorption maxima at 365, 405, 455, and 500 nm were recorded for comparison.
(§1) Referring also to FIG. 3, there is shown a series of graphs illustrating the absorption behaviour of the resin components in spectroscopy grade acetone, diluted from 1 M stock solutions down to 10 μM using serial dilutions. Absorption behaviour was examined from 200 nm to 800 nm, at 1 nm increments, with absorption maxima quantified at 365, 405, 455, and 500 nm, as indicated in the box in each graph.

Data set [2] can be described thus: Concentration at which Reactive Diluent 3 acts as a photoinhibitor (absorption vs concentration, inflection point). Format: physicochemical. As for the experimental part: as §1
This was used to determine the concentration at which Reactive Diluent 3 would act as a photoinhibitor for wavelengths of interest. At 365 nm, the inflection point of the logarithmic plot of the linear fit was located at ca 0.015M; 405 nm inflection point was located at 0.0131M; 450 nm inflection point was found at 0.099M; 500 nm inflection point was located at 0.1312M.

The structures appear in SMILES notation.

For the compound `C=CCOC(=O)NCC1(C)CC(NC(=O)OCC=C)CC(C)(C)C1` (centres unmarked) [Reactive Diluent 1], in data set [1], the “absorption maximum (λmax)” value is “do not exhibit an absorption maximum (λmax) of between 350 and 520 nm”.

Take `C=CCNC(=O)NCC1(C)CC(NC(=O)NCC=C)CC(C)(C)C1` (centres unmarked) [Reactive Diluent 2]: the “absorption maximum (λmax)” value in data set [1] was “do not exhibit an absorption maximum (λmax) of between 350 and 520 nm”.

For the compound `C=CCN1C(=O)CC(=O)N(CC2(C)CC(N3C(=O)CC(=O)N(CC=C)C3=O)CC(C)(C)C2)C1=O` (centres unmarked) [Reactive Diluent 3], the “absorption maximum (λmax)” value in data set [1] is reported as “ca. 450 nm”. Moreover, in data set [2], the “concentration needed in a resin composition to function as a photoinhibitor” value is “at least 0.015 M”. Besides, the “inflection point of the logarithmic plot of the linear fit” value in data set [2] (365 nm, acetone) is on record as ~0.015 M. In addition, the inflection point amounted to 0.0131 M in data set [2] (405 nm, acetone); 0.099 M in data set [2] (450 nm, acetone); 0.1312 M in data set [2] (500 nm, acetone).

(Values after patent US20240101749A1, “RESIN COMPOSITION” (4D MEDICINE LIMITED, priority 2021, published 2024).)
